The results in this text go back to patent US7754654B2, “Substituted spirocyclic ketoenols” (Bayer CropScience AG, priority 2002, dated 2010).

Holding throughout (type): in vivo
Assay [1] relates to larvae of the mustard beetle (Phaedon cochleariae). The assay is described as follows: Phaedon larvae test (cabbage leaf dip). As to conditions: 1000 ppm. As for the experimental part:
To produce a suitable preparation of active compound, 1 part by weight of active compound is mixed with the stated amounts of solvent and emulsifier, and the concentrate is diluted with emulsifier-containing water to the desired concentration. Cabbage leaves (Brassica oleracea) are treated by being dipped into the preparation of active compound of the desired concentration and are populated with larvae of the mustard beetle (Phaedon cochleariae) while the leaves are still moist. After the desired period of time, the kill in % is determined. 100% means that all beetle larvae have been killed; 0% means that none of the beetle larvae have been killed.

In assay [2] the test system is Alopecurus. The assay is described as follows: Pre-emergence test. As to conditions: 250 g of ai/ha, after three weeks. As for the experimental part: (§1) To produce a suitable preparation of active compound, 1 part by weight of active compound is mixed with the stated amount of solvent, the stated amount of emulsifier is added and the concentrate is diluted with water to the desired concentration. Seeds of the test plants are sown in normal soil. After about 24 hours, the soil is sprayed with the preparation of active compound such that the particular amounts of active compound desired are applied per unit area. The concentration of the spray liquor is chosen such that the particular amounts of active compound desired are applied in 1000 l of water/ha. After three weeks, the degree of damage to the plants is rated in % damage in comparison to the development of the untreated control. The figures denote: • 0%=no effect (like untreated control) • 100%=total destruction

The subject of assay [3] is Amaranthus. The assay is described as follows: Pre-emergence test. As to conditions: 250 g of ai/ha, after three weeks. As for the experimental part:
as §1

Assay [4] concerns Setaria. The assay is described as follows: Pre-emergence test. As to conditions: after three weeks. As for the experimental part:
as §1

Assay [5] concerns Echinochloa. As to the kind of experiment: Pre-emergence test. As to conditions: 250 g of ai/ha, after three weeks. As for the experimental part:
as §1

Assay [6] relates to Avena fatua. As to the kind of experiment: Pre-emergence test. As to conditions: 250 g of ai/ha, after three weeks. As for the experimental part:
as §1

Assay [7] deals with Sinapis. As to the kind of experiment: Pre-emergence test. As to conditions: 250 g of ai/ha, after three weeks. As for the experimental part:
as §1

Assay [8] deals with Sugar beet. The assay is described as follows: Pre-emergence test. As to conditions: 250 g of ai/ha, after three weeks. As for the experimental part:
as §1

Assay [9] relates to Maize. The assay is described as follows: Pre-emergence test. As to conditions: 125 g of ai/ha, after three weeks. As for the experimental part: as §1
Assay [10] relates to Digitaria. As to the kind of experiment: Pre-emergence test. As to conditions: 125 g of ai/ha, after three weeks. As for the experimental part: as §1
Assay [11] concerns Lolium. As to the kind of experiment: Pre-emergence test. As to conditions: 125 g of ai/ha, after three weeks. As for the experimental part: as §1
The subject of assay [12] is Ipomoea. As to the kind of experiment: Pre-emergence test. As to conditions: 125 g of ai/ha, after three weeks. As for the experimental part: as §1
Assay [13] has as its system Eriochloa. The assay is described as follows: Pre-emergence test. As to conditions: 125 g of ai/ha, after three weeks. As for the experimental part:
as §1

The test system of assay [14] is Amaranthus. The assay is described as follows: Post-emergence test. As to conditions: 250 g of ai/ha, after three weeks. As for the experimental part: as §1, with “Test plants” for “Seeds”, “a height of 5-15 cm” for “the test plants”, “are” for “are sown in normal soil. After about 24 hours, the soil is”
Assay [15] has as its system Setaria. The assay is described as follows: Post-emergence test. As to conditions: 250 g of ai/ha, after three weeks. As for the experimental part:
as §1, with “Test plants” for “Seeds”, “a height of 5-15 cm” for “the test plants”, “are” for “are sown in normal soil. After about 24 hours, the soil is”

Assay [16] has as its system Avena fatua. The assay is described as follows: Post-emergence test. As to conditions: 250 g of ai/ha, after three weeks. As for the experimental part: as §1, with “Test plants” for “Seeds”, “a height of 5-15 cm” for “the test plants”, “are” for “are sown in normal soil. After about 24 hours, the soil is”
The test system of assay [17] is Sinapis. As to the kind of experiment: Post-emergence test. As to conditions: 250 g of ai/ha, after three weeks. As for the experimental part: as §1, with “Test plants” for “Seeds”, “a height of 5-15 cm” for “the test plants”, “are” for “are sown in normal soil. After about 24 hours, the soil is”
For assay [18], the system named is Abutilon. As to the kind of experiment: Post-emergence test. As to conditions: 250 g of ai/ha, after three weeks. As for the experimental part: as §1, with “Test plants” for “Seeds”, “a height of 5-15 cm” for “the test plants”, “are” for “are sown in normal soil. After about 24 hours, the soil is”
In assay [19] the test system is Sugar beet. As to the kind of experiment: Post-emergence test. As to conditions: 250 g of ai/ha, after three weeks. As for the experimental part: as §1, with “Test plants” for “Seeds”, “a height of 5-15 cm” for “the test plants”, “are” for “are sown in normal soil. After about 24 hours, the soil is”
The test system of assay [20] is Alopecurus. As to the kind of experiment: Post-emergence test. As to conditions: 250 g of ai/ha, after three weeks. As for the experimental part:
as §1, with “Test plants” for “Seeds”, “a height of 5-15 cm” for “the test plants”, “are” for “are sown in normal soil. After about 24 hours, the soil is”

The subject of assay [21] is Galium. As to the kind of experiment: Post-emergence test. As to conditions: 250 g of ai/ha, after three weeks. As for the experimental part: as §1, with “Test plants” for “Seeds”, “a height of 5-15 cm” for “the test plants”, “are” for “are sown in normal soil. After about 24 hours, the soil is”
Assay [22] deals with Cyperus. The assay is described as follows: Post-emergence test. As to conditions: 250 g of ai/ha, after three weeks. As for the experimental part: as §1, with “Test plants” for “Seeds”, “a height of 5-15 cm” for “the test plants”, “are” for “are sown in normal soil. After about 24 hours, the soil is”

On to `Cc1cc(C)c(C2=C(O)C3(CCC(OCC4CCCO4)CC3)NC2=O)c(C)c1` (single isomer, unassigned) [Ex. I-1-a-7], for which the “Kill rate in % after 7d” value in assay [1] is given as 100%. Moreover, the “% damage” value is 80% in assay [2]; 95% in assay [3]; 100% in [4] (250 g of ai/ha); 99% in [5]; 95% in assay [6]; 90% in assay [7]. Besides, in assay [8], the “% damage” value is recorded as 0%.

Turning to `Cc1cc(C)c(C2=C(O)C3(CCC(OCc4cccc(Cl)c4)CC3)NC2=O)c(C)c1` (single isomer, unassigned) [Ex. I-1-a-23], the “% damage” value in [9] came to 0%; in [10] it was 100%; in assay [4] (125 g of ai/ha), 95%; in assay [11], 80%; in assay [12], 80%; in [13], 99%. The “% damage” value in assay [14] came to 90%; in assay [15] it was 95%; in assay [16], 80%; in assay [17] it was 90%; in [18], 80%; in assay [19], 0%.

On to `Cc1cc(C)c(C2=C(O)C3(CCC(OCc4ccc(Cl)cc4)CC3)NC2=O)c(C)c1` (single isomer, unassigned) [Ex. I-1-a-27], for which the “% damage” value in [20] was 90%; in assay [14], 90%; in assay [21] it was 70%; in [17], 80%; in assay [18], 80%.

For the compound `Cc1cc(C)c(C2=C(OC(=O)C(C)C)C3(CCC(OCc4ccccc4)CC3)NC2=O)c(C)c1` (single isomer, unassigned) [Ex. I-1-b-2], the “% damage” value in [20] is 80%; in assay [15], 95%; in assay [17], 70%; in assay [22], 80%; in [19] it was 0%.
